The values below come from paper PMC6009935 (Journal of Enzyme Inhibition and Medicinal Chemistry, 2017).

In this test the target is G-protein. As to the kind of experiment: Functional [35S]GTPγS binding assay on rat brain membrane homogenates. It counts as biochemical. How it is done: The experiments were performed by [35S]GTPγS binding assays to control the GDP to GTP exchange of the α-subunit of Gi-protein. […] We examined the opioid receptor binding affinity of 5 in competition binding experiments, using opioid receptor selective radioligands. […]
Functional [35S]GTPγS binding experiments
The functional [35S]GTPγS binding experiments were performed as previously described,5,6 with modifications. Briefly the rat brain membrane homogenates containing ~10 µg/mL protein were incubated at 30 °C for 60 min in Tris-EGTA buffer (pH 7.4) composed of 50 mM Tris-HCl, 1 mM EGTA, 3 mM MgCl2, 100 mM NaCl, containing 20 MBq/0.05 cm3 [35S]GTPγS (0.05 nM) and […]
compound 9 together with excess GDP (30 µM) in a final volume of 1 mL. Total binding was measured in the absence of test compounds, non-specific binding was determined in the presence of 10 µM unlabelled GTPγS. The bound and unbound [35S]GTPγS was separated as described in the […]
competition binding assays section through Whatmann GF/B glass fibers. The radioactivity of the filters was also detected as described above. [35S]GTPγS binding experiments were performed in triplicates and repeated at least three times.
The specific binding of all radiolabeled compounds was calculated by the subtraction of non-specific binding from total binding and was given in percentage. The data was normalized to total specific binding, which was settled 100%, which in case of [35S]GTPγS also represents the basal activity of the G-protein. Experimental data were presented as means ± S.E.M in the function of the applied ligand concentration range in logarithm form. Points were fitted with the professional curve fitting program, GraphPad Prism 5.0 (GraphPad Prism Software Inc., San Diego, CA), using non-linear regression. In the radioligand competition binding assays the ‘One-site competition’, while in [35S]GTPγS binding assays the ‘Sigmoid dose-response’ equation was applied to determine IC50 (unlabeled ligand affinity) and the maximum G-protein efficacy (Emax) and ligand potency (EC50), respectively. For IC50 and EC50 values standard error is only given in their logarithm form by the curve fitting program due to the data representation. In competition binding experiments the Ki value was calculated according to Cheng-Prusoff equation.7 […]
binding assays. In figure B, 5 is indicated again for better comparison. Figures represents the specific binding of [35S]GTPγS in percentage in the presence of increasing concentrations (10-10-10-5 M) of the indicated ligands in rat brain membrane homogenates. “Basal” on the x-axis indicates the basal activity of the monitored G-protein, which is measured in the absence of the compounds and also represents the total specific binding of [35S]GTPγS. The level of basal activity was defined as 100% and is presented with a dotted line. Points represent means ± S.E.M. for at least three experiments performed in triplicate.
On the technique in general: Binding of GTPγS marks nucleotide exchange on a G protein.

[1] abbreviates: rat brain membrane homogenates, basal activity = 100%.
The mark [2] stands for this setting: rat brain membrane homogenates, logarithm of EC50, negative sign printed.

SMILES strings stand for the structures. Like-named read-outs stand apart in the source and are kept apart here.

The term EC50 denotes the concentration giving half of the maximal effect. A higher EC50 goes with weaker potency. As for `C[C@@H](NC(=O)[C@@H](N)Cc1ccc(O)cc1)C(=O)NCC(=O)N[C@@H](Cc1ccccc1)C(N)=O` [Compound 10, Tyr-D-Ala-Gly-Phe-NH2, reference compound], the EC50 was 81.3 nM; the “Emax ± S.E.M. (maximal G-protein efficacy)” value is on record as 161.5 ± 4.08%; the “LogEC50 ± S.E.M. (ligand potency)” value is given as −7.09 ± 0.22 (81.3 nM); the “agonist, antagonist or inverse agonist nature” value is on record as “agonist”. The “maximum efficacy (Emax) above basal activity” value is given as about 70%.
Consider `Cc1c(C(=O)NC2CCN(C(=O)[C@H](Cc3ccccc3)NC(=O)CNC(=O)[C@@H](C)NC(=O)[C@@H](N)Cc3ccc(O)cc3)CC2)nn(-c2ccc(Cl)cc2Cl)c1-n1cccc1` [Compound 9], for which the “agonist, antagonist or inverse agonist nature” value is “inverse agonist”. Besides, the EC50 (rat brain membrane homogenates) is 3600 nM. Besides, the “Emax ± S.E.M. (maximal G-protein efficacy)” value under setting [1] was 36.62 ± 10.35%. Also, under setting [2], the “LogEC50 ± S.E.M. (ligand potency)” value is recorded as −5.44 ± 0.21.
Regarding `Cc1c(C(=O)NC2CCNCC2)nn(-c2ccc(Cl)cc2Cl)c1-n1cccc1` [Compound 5], the “Emax ± S.E.M. (maximal G-protein efficacy)” value under setting [1] stood at 99.2 ± 46.1%. The “LogEC50 ± S.E.M. (ligand potency)” value under setting [2] is listed as “ambiguous ^*”.
